Results as given in article PMC9916762, “Impact of Hydrophobic Chains in Five-Coordinate Glucoconjugate Pt(II) Anticancer Agents” (International Journal of Molecular Sciences, 2023).

Columns and labels:
[1] = test system: murine fibroblast BALB/c-3T3 transformed with the SV40 virus (SVT2); assay: MTT cell viability assay, SVT2; assay type: cell-based; conditions: for IC50: 48 h incubation, MTT; for SI (selectivity index): ratio IC50 BALB-c/3T3 / IC50 SVT2
From the text: (§1) The immortalized human keratinocytes (HaCaT) were from Innoprot.

[2] = test system: immortalized human keratinocytes (HaCaT); assay: MTT cell viability assay, HaCaT; assay type: cell-based; conditions: 48 h incubation
From the text: as §1

[3] = test system: human epidermoid carcinoma cells (A431); assay: MTT cell viability assay, A431; assay type: cell-based; conditions: for IC50: 48 h incubation, MTT; for SI (selectivity index): ratio IC50 HaCaT / IC50 A431
From the text: as §1

[4] = Octanol/water partition coefficient, shake-flask method; assay type: physicochemical; conditions: n-octanol/water, UV-vis
Protocol: The partition coefficients in octanol/water (log Po/w) were measured using the shake-flask method, by calculating the equilibrium concentrations through UV spectra (Table 1).
Partition coefficients for the platinum complexes were determined in triplicate in an n-octanol/water system, with different ratios (1:1, 1:2, 2:1). Each complex was dissolved in n-octanol at the concentrations 16.7, 12.5, or 10 μM and subsequently, an appropriate volume of water was added. The mixtures were shaken mechanically for 1 h to ensure the distribution between the two solvent phases. The samples were then centrifuged (13,000 rpm, 10 min). Afterwards, the platinum concentration was determined in the octanol phases by UV–vis spectrophotometry, after collecting a calibration line for each complex. Results are expressed as the logarithm of the partition coefficient of octanol/water (log Po/w), which is the logarithm of the concentration of platinum in the n-octanol divided by its concentration in the aqueous layer.

[5] = test system: immortalized murine fibroblasts (BALB/c-3T3); conditions: read-out: IC50 BALB-c/3T3; 48 h incubation, MTT
Protocol: To evaluate their biological activity, the effects of the four complexes on cell viability were evaluated in eukaryotic cell models. For this purpose, experiments were performed on two cancer cell lines, i.e., human epidermoid carcinoma cells (A431) and murine fibroblast BALB/c-3T3 transformed with the SV40 virus (SVT2), and on two non-cancer cell lines, i.e., immortalized human keratinocytes (HaCaT) and immortalized murine fibroblasts (BALB/c-3T3). Cells were incubated with increasing concentrations of 1,Me-Me, 1,Oct-Me, 1,Me-Oct, and 1,Oct-Oct (from 0.1 to 50 μM). After 48 h of incubation, cytotoxicity was determined by MTT assay and cell survival was expressed as the percentage of viable cells in the presence of each complex compared with that of the untreated cells (Figure S19).
The immortalized human keratinocytes (HaCaT) were from Innoprot. Human The A431 epidermoid carcinoma, murine BALB/c-3T3, and SVT2 fibroblasts were from ATCC. Cells were cultured in Dulbecco’s modified Eagle’s medium (DMEM) (Sigma-Aldrich, St. Louis, MO, USA), supplemented with 10% foetal bovine serum (HyClone), 2 mM L-glutamine, and antibiotics, all from Sigma-Aldrich, under a 5% CO2-humidified atmosphere at 37 °C. To test the effects of the complexes on cell viability, cells were seeded at a density of 2.5 × 10^3 cells per well in 96-well plates. After 24 h, cells were incubated with increasing concentrations (from 0.1 to 50 μM) of the four complexes. After 48 h, cell viability was assessed by the MTT assay, as previously reported in [43]. Cell viability was expressed as the percentage of viable cells in the presence of the Pt complexes compared to the controls, represented by untreated cells and cells supplemented with identical volumes of DMSO. Each sample was tested in three independent analyses, each carried out in triplicate.

A431 cells [6] = assay: Western blot of pro-caspases 9 and 3, A431; assay type: cell-based, human; conditions: A431, 2.3 μM, 48 h
Protocol: (§2) In particular, SVT2 and A431 were incubated for 48 h with 1-Me,Me and 1-Oct,Me, using the IC50 value concentrations. At the end of incubation, uptake and cell death mechanisms were evaluated. […] Finally, apoptosis was investigated by Western blot analyses using specific antibodies against pro-caspases 9 and 3.
The SVT2 were seeded on six-well plates at a density of 2.5 × 10^5 cells/well, whereas A431 was seeded at a density of 3 × 10^5 cells/well. After 24 h, cells were treated with 9.8 μM of 1-Me,Me or 2.3 μM 1-Oct,Me. After 48 h of incubation, Western blot analyses were performed by using pro-caspase 9 (Cell Signaling Technology, Danvers, MA, USA) and pro-caspase 3 (Abcam, Cambridge, MA, USA) antibodies, as reported by Del Giudice et al. Protein intensity levels were normalized using β-actin (Sigma-Aldrich, St. Louis, MO, USA). The chemiluminescence detection system was purchased from Bio-Rad (Hercules, CA, USA).

A431 cells [7] = assay: Cellular Pt uptake by ICP-MS, A431; assay type: cell-based, human; conditions: A431, 2.3 μM (IC50), 48 h, mean ± S.E.
Protocol: as §2
To study the uptake of the complexes, SVT2 and A431 were incubated for 48 h in the presence of 1-Me,Me and 1-Oct,Me, respectively, at their IC50 concentrations. At the end of incubation, Pt determination was performed by inductively coupled plasma mass spectrometry (ICP-MS, Aurora M90; Bruker, Ettlingen/Leipzig, Germany) in the “Normal Sensitivity” mode. Calibration curves for the quantification of Pt ranged from 0.1 to 100 μg/L and were constructed daily by the analysis of the standard solutions prepared immediately before analysis. All standards used for analysis were prepared in HNO3 solution (2%, v/v). The internal standards were ^89Y and ^115In in both the calibration curve and sample analyses. The linearity was acceptable with an R^2 value greater than 0.9996. The treatment of the cells involved a wet digestion: after centrifugation, cell samples were wet digested with 1 mL of ultrapure HNO3 (67–69%, v/v). The mixture was gently boiled over a water bath (90 °C) for 3 h until a clear solution was obtained. […]

Row | Substance | IC50 [1] [µM] | SI (selectivity index) [1] | IC50 [2] [µM] | IC50 [3] [µM] | SI (selectivity index) [3] | Log Po/w [4] | IC50 [5] [µM] | pro-caspases 9 and 3 levels (A431 cells [6]) | Pt uptake (A431 cells [7]) [Pt ng/10^6 cells]
1 | Platinum(1+), (2,9-dimethyl-1,10-phenanthroline- N1,N10)(η2-ethene)methyl[1,3-dihydro-1-methyl-3-octyl-4-[1-[2,3,4,6-tetrakis-O-(acetyl)-β-D-glucopyranosyl]-1H-1,2,3-triazol-4-yl]-2H-imidazol-2-ylidene], 1,1,1-trifluoromethanesulfonate [1-Me,Oct] | 7.6 ± 1.1 | 1.09 | 8 ± 0.1 | 7.3 ± 0.4 | 1.1 | 0.74 | 8.3 ± 0.4 | – | –
2 | Platinum(1+), (2,9-dimethyl-1,10-phenanthroline- N1,N10)(η2-ethene)octyl[1,3-dihydro-1,3-dimethyl-4-[1-[2,3,4,6-tetrakis-O-(acetyl)-β-D-glucopyranosyl]-1H-1,2,3-triazol-4-yl]-2H-imidazol-2-ylidene], 1,1,1-trifluoromethanesulfonate [1-Oct,Me] | 8.6 ± 0.6 | 0.83 | 6.4 ± 1 | 2.3 ± 0.1 | 2.78 | 1.14 | 7.1 ± 0.1 | significant decrease in pro-caspases 9 and 3 levels | 14.3 ± 1.3
3 | Platinum(1+), (2,9-dimethyl-1,10-phenanthroline- N1,N10)(η2-ethene)octyl[1,3-dihydro-1-methyl-3-octyl-4-[1-[2,3,4,6-tetrakis-O-(acetyl)-β-D-glucopyranosyl]-1H-1,2,3-triazol-4-yl]-2H-imidazol-2-ylidene], 1,1,1-trifluoromethanesulfonate [1-Oct,Oct] | 4.5 ± 1.3 | 1.62 | 6.4 ± 0.8 | 5 ± 0.6 | 1.28 | 0.80 | 7.3 ± 0.7 | – | –
